Assay results taken from patent US20040235830A1, “Substituted cyclohexane derivatives and the use thereof in medicaments for treating cardiovascular diseases” (priority 2000, published 2004).

Tested on: Langendorff rat heart
Test: Langendorff rat heart (isolated perfused heart, coronary perfusion pressure)
Settings: constant-volume (10 ml/min) coronary perfusion, concentration from which perfusion pressure decreases (= relaxation of the coronary arteries), read-out: Decrease in the perfusion pressure from:
Method: The heart is rapidly removed after opening the chest cavity of anesthetized rats and is introduced into a conventional Langendorff apparatus. The coronary arteries are subjected to constant-volume (10 ml/min) perfusion, and the perfusion pressure arising thereby is recorded via an appropriate pressure transducer. A decrease in the perfusion pressure in this arrangement corresponds to a relaxation of the coronary arteries. At the same time, the pressure developed by the heart during each contraction is measured via a balloon introduced into the left ventricle, and a further pressure transducer. The rate at which the isolated heart beats is found by calculation from the number of contractions per unit time.

SMILES	minimal effective concentration [µM]
C[C@H](NC(=O)[C@H]1CCCCC1c1ccc(C(=O)N(C)C(C)(C)c2ccccc2)cc1)c1ccccc1 (stereo in doubt) [Example 177, N-Methyl-N-(1-methyl-1-phenylethyl)-4-[(1R,2S)-2-({[(1S)-1-phenylethyl]-amino}carbonyl)cyclohexyl]benzamide]	0.01
O=C(N[C@@H](CO)c1ccccc1)[C@H]1CCCC[C@@H]1c1ccc(CN(C(=O)N2CCCCC2)c2ccccc2)cc1 [Example 1, N-[4-((1S,2S)-2-{[((1R)-2-Hydroxy-1-phenylethyl)amino]carbonyl}cyclohexyl)-benzyl]-N-phenyl-1-piperidinecarboxamide]	1
C[C@H](NC(=O)[C@H]1CCCC[C@@H]1c1ccc(CN(C(=O)N2CCCC2)c2ccccc2)cc1)c1ccccc1 [Example 7]	0.1
CN(Cc1ccc([C@H]2CCCC[C@@H]2C(=O)N[C@@H](CO)c2ccccc2)cc1)c1ccccc1 [Example 21]	0.001
O=C(NC(CO)c1ccccc1)C1CCCCC1c1ccc(CN(C(=O)Oc2ccccc2)C2CC2)cc1 (stereo not drawn) [Example 40]	0.01
COCCN(Cc1ccc(C2CCCCC2C(=O)NC(CO)c2ccccc2)cc1)C(=O)Nc1ccccc1 (stereo not drawn) [Example 80]	1
C[C@H](NC(=O)[C@H]1CCCC[C@@H]1c1ccc(CN(C)C(C)(C)c2ccccc2)cc1)c1ccccc1 [Example 123, (1S,2S)-2-(4-{[Dimethylbenzyl(methyl)amino]methyl}phenyl)-N-[(1S)-1-phenylethyl]cyclohexanecarboxamide]	0.01
COCC(NC(=O)[C@H]1CCCC[C@@H]1c1ccc(CN(C(=O)Oc2ccccc2)C2CC2)cc1)c1ccccc1 (stereo partly drawn) [Example 168]	0.01
C[C@H](NC(=O)[C@H]1CCCC[C@@H]1c1ccc(COc2ccccc2)cc1)c1ccccc1 [Example 210, (1S,2S)-2-(4-[Phenoxymethyl]phenyl)-N-[(1S)-1-phenylethyl]cyclohexane-carboxamide]	0.001
